This is an account of results in patent US20230072421A1, “TARGETED RADIOPHARMACEUTICALS FOR THE DIAGNOSIS AND TREATMENT OF PROSTATE CANCER” (Bayer AS, priority 2019, published 2023).

One experiment relates to VCaP cells. The experiment in a line: Cell proliferation assay (CellTiter-Glo, 5-day exposure), VCaP. The experiment is classed as cell-based. Particulars: 4000 cells/well, Th-227 labelled at 375 kBq/nmol, mean of 1 to 6 experiments. Summed up:
(§1)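 Prostate cancer cells (VCaP 4000/well; 22Rv1, C4-2, LNCaP 1000/well), Th-227-labelled PSMA ligands, 5-day exposure; viability by CTG at start and end.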

In another experiment the test system is 22Rv1 cells. The experiment in a line: Cell proliferation assay (CellTiter-Glo, 5-day exposure), 22Rv1. It is filed as cell-based. Particulars: 22Rv1, 1000 cells/well, Th-227 labelled at 375 kBq/nmol, mean of 1 to 6 experiments. Summed up:
as §1
(In general: In ATP-based viability assays light output follows the ATP content of the culture.)

The test system of experiment [1] is LNCaP human prostate cancer cells. The experiment in a line: LNCaP xenograft efficacy study (T/C tumor area). The experiment is classed as in vivo, SCID mice. Summed up: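 SCID mice with testosterone pellet bearing s.c. flank LNCaP xenografts (5×10^6 cells in Matrigel) were treated i.v. with a defined radioactive dose once tumors reached 35-50 mm^2 (n=10/group). Tumor area (caliper, longest diameter × perpendicular) measured 2-3× weekly; T/C ratio calculated from tumor areas when vehicle group closed.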

Experiment [2] concerns the target T1, PSMA-expressing LNCaP cells (Homo sapiens, UniProt Q04609).
T1 construct: PSMA-expressing LNCaP cells; endogenous in cells; host or cells: LNCaP
Put plainly: Internalization assay (membrane bound and internalized Th-227). Conditions: 10 nM radiolabeled compound, Th-227 at 375 kBq/nmol, triplicates; for Internalized in LNCaP fmol/10^6 cells 30 min / Membrane bound in LNCaP fmol/10^6 cells 30 min: 30 min incubation; for Internalized in LNCaP fmol/10^6 cells 2 h / Membrane bound in LNCaP fmol/10^6 cells 2 h: 2 h incubation. The experiment is classed as cell-based. As to the method: For internalization assays 24 well plates (#3526, Corning) were coated with 200 μl Poly-L-Lysine (0.1 mg/ml, #3438-100-01, Fa. Cultrex) per well for 2 h at 37° C. […] Cells were incubated at 37° C. and 5% CO2 over night. On the following day 400 μl of the media were removed and a total of 200 μl growth medium added supplemented with PSMA-SMOLs labeled with Th-227 at 375 kBq/nmol in triplicates. Radiochemical purity of the labeling was analyzed by instant thin layer chromatography and found to be above 70% for all compounds used. The final concentration of radiolabeled SMOLs was in the test wells was 10 nM. Cells were incubated for 30 min or 2 h. After the incubation time supernatants were taken off and cells washed with PBS. Thereafter cells were washed twice with 0.2 ml 50 mM Glycine-HCl buffer (#55097, Sigma Aldrich) and once with PBS and the washing solutions combined in counting vials (#TK75-018, Fa. Corning) and subjected to gamma counting (1470 Wizard automatic gamma counter, Wallac). The resulting counts were attributed to membrane bound radioactivity. Cells were then lysed with 500 μl 0.3N NaOH (#181691.1211, Fa. PanReac AppliChem ITW Reagents) followed by another wash with 500 μl PBS. The NaOH lysate as well as the final wash were combined in vials and subjected to gamma counting as described above. Measured radioactivity was attributed to internalized fraction. Results were calculated as fmol of Th-227 per/10^cells in the membrane bound and internalized fractions from triplicate values.

The mark [3] stands for this setting: Example II, 750 kBq/kg weekly for 5 weeks, day 120.
Setting [4] is: Example V, day 27 after start of therapy, once 750 kBq/kg.

T1 sequence (Q04609 whole entry): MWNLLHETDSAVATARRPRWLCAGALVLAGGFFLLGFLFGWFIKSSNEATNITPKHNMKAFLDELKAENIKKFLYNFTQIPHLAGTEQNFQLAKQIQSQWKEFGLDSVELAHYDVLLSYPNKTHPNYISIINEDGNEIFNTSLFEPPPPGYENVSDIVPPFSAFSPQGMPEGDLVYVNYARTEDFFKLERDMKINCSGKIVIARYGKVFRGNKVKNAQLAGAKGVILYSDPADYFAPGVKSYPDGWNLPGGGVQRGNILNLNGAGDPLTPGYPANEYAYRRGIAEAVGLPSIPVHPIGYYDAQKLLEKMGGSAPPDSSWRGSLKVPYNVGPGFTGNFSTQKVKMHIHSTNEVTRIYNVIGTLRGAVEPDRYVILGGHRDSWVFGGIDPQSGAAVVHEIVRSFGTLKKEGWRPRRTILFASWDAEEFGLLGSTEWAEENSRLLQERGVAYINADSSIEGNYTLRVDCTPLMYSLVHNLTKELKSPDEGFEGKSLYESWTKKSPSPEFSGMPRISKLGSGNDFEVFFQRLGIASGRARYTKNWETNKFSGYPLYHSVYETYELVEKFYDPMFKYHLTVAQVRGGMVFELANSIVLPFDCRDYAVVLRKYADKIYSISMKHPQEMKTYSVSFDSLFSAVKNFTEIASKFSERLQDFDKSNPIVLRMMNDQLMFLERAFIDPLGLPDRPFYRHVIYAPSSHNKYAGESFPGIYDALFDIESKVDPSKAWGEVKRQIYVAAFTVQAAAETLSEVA

As for `O=C([O-])CN1CCN(CC(=O)[O-])CCN(CC(=O)NCC2CCC(C(=O)NC(Cc3ccc4ccccc4c3)C(=O)NCCCCC(NC(=O)NC(CCC(=O)O)C(=O)O)C(=O)O)CC2)CCN(CC(=O)[O-])CC1.[227Th+4]` [Example 1-B-227Th, [^227Th]Thorium (3S,10S,14S)-3-[(naphthalen-2-yl)methyl]-1,4,12-trioxo-1-{(1r,4S)-4-[(2-{4,7,10-tris[(carboxy-kappaO)methyl]-1,4,7,10-tetraazacyclododecan-1-yl-kappa^4N^1,N^4,N^7,N^10}acetamido)methyl]cyclohexyl}-2,5,11,13-tetraazahexadecane-10,14,16-tricarboxylate], the “Proliferation assay on cancer cell lines by TTCs Default Pivot #3 IC50 [kBq/mL] VCap 4000cells 375kBq/nmol (mean)” value with VCaP cells amounted to 0.38 kBq/mL. The “Proliferation assay on cancer cell lines by TTCs Default Pivot #3 IC50 [kBq/mL] 22Rv1 1000cells 375kBq/nmol (mean)” value in the experiment on 22Rv1 cells came out at 0.71 kBq/mL. Also, in experiment [1] (setting [3]), the Mean tumor size was 20 mm^2 and the Tumor response entry was “full response”. In addition, the T/Carea in experiment [1] (Example II, day 33 after start of therapy, 750 kBq/kg weekly for 5 weeks) is recorded as 0.18. This compound showed a T/Carea in experiment [1] (Example III, day 64 after start of therapy, single treatment 1.5 MBq/kg) of 0.51. Further, the T/Carea in experiment [1] (setting [4]) stood at 0.29. In experiment [2], the “Internalized in LNCaP fmol/10^6 cells 30 min” value is given as 55 fmol/10^6 cells, the “Membrane bound in LNCaP fmol/10^6 cells 30 min” value turned out to be 237 fmol/10^6 cells, the “Internalized in LNCaP fmol/10^6 cells 2 h” value was determined as 189 fmol/10^6 cells and the “Membrane bound in LNCaP fmol/10^6 cells 2 h” value amounted to 438 fmol/10^6 cells.
For the compound `O=C([O-])CN1CCN(CC(=O)[O-])CCN(CC(=O)NCC2CCC(C(=O)NC(Cc3ccc4ccccc4c3)C(=O)NCCCCC(NC(=O)NC(CCC(=O)O)C(=O)O)C(=O)O)CC2)CCN(CC(=O)[O-])CC1.[227Th+4]` [Example 1-B-D-227Th, [^227Th]Thorium-(3S,10S,14R)-3-[(naphthalen-2-yl)methyl]-1,4,12-trioxo-1-{(1r,4S)-4-[(2-{4,7,10-tris[(carboxy-kappaO)methyl]-1,4,7,10-tetraazacyclododecan-1-yl-kappa^4N^1,N^4,N^7,N^10}acetamido)methyl]cyclohexyl}-2,5,11,13-tetraazahexadecane-10,14,16-tricarboxylate], the “Proliferation assay on cancer cell lines by TTCs Default Pivot #3 IC50 [kBq/mL] VCap 4000cells 375kBq/nmol (mean)” value with VCaP cells turned out to be 4.52 kBq/mL. Besides, the “Proliferation assay on cancer cell lines by TTCs Default Pivot #3 IC50 [kBq/mL] 22Rv1 1000cells 375kBq/nmol (mean)” value in the experiment with 22Rv1 cells is reported as 1.28 kBq/mL. In addition, the T/Carea in experiment [1] (Example IV, day 36 after start of therapy, once 1 MBq/kg) worked out at 0.81. In experiment [1] (setting [4]), this compound gave a T/Carea of 0.91. In experiment [2], the “Internalized in LNCaP fmol/10^6 cells 30 min” value amounted to 3 fmol/10^6 cells, the “Membrane bound in LNCaP fmol/10^6 cells 30 min” value is listed as 16 fmol/10^6 cells, the “Internalized in LNCaP fmol/10^6 cells 2 h” value amounted to 12 fmol/10^6 cells and the “Membrane bound in LNCaP fmol/10^6 cells 2 h” value is reported as 30 fmol/10^6 cells.
